Assay [1] concerns the target T1, Cbl-b (Homo sapiens, UniProt Q13191). The experiment in a line: Cbl-b activity assay (Cbl-b inhibition assay), TR-FRET of Cbl-b interaction with UbcH5B-Ub. It is filed as biochemical. The note with it: assay buffer with 100 mM NaCl, 60 nM Src kinase; read-out: Cbl-b activity IC50. The method in brief:
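TR-FRET readout of Cbl-b binding to Bodipy-fluorescein N-terminally labeled Ub conjugated to UbcH5B C85K, measured with compound present. After compound incubation, 60 nM Src kinase with 1 mM ATP and 5 mM MgCl2 (final) was added for 1.5 h, then a further 1 h incubation; asterisked values used 50 mM NaCl buffer and 30 nM Src.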

The test system of assay [2] is T-cell. Briefly: IL-2 secretion from T-cells stimulated with anti-CD3 antibody alone (Biological Example 2). It is filed as cell-based, human. The following applies: Homo sapiens, T-cell; 1 μM Cbl-b inhibitor; fold change over baseline (anti-CD3/anti-CD28 stimulated T-cells without inhibitor); read-out: IL-2 secretion Anti-CD3 stimulation.
Assay [3] relates to T-cell. Briefly: IL-2 secretion from T-cells co-stimulated with anti-CD3 and anti-CD28 antibody (Biological Example 2). The note with it: Homo sapiens, T-cell, fold change over baseline (anti-CD3/anti-CD28 stimulated T-cells without inhibitor), read-out: IL-2 secretion Anti-CD3/Anti-CD28 stimulation; for fold induction at 0.3 µM: 0.3 μM Cbl-b inhibitor; for fold induction at 1 µM: 1 μM Cbl-b inhibitor. In kind it is cell-based, human. The procedure, abridged:
(§1)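 No assay protocol given; T-cells stimulated with anti-CD3 alone or anti-CD3 plus anti-CD28, with or without Cbl-b inhibitor. Activation read as IL-2 secretion or CD25 surface staining, expressed as fold over baseline from uninhibited cells […].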

Assay [4] deals with T1, Cbl-b. Briefly: Cbl-b inhibition assay (Cbl-b activity assay, FRET, Biological Example 1; 100 mM NaCl, 60 nM Src kinase). It is filed as biochemical. The note with it: upper bound stated in text lists; read-out: IC50 values in the Cbl-b inhibition assay of Biological Example 1. The method in brief:
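TR-FRET assay using N-terminal biotinylated Avi-tagged Cbl-b bound to streptavidin-terbium, Src kinase for Cbl-b phosphorylation, and UbcH5B irreversibly conjugated to Bodipy-Fluorescein-ubiquitin. Phosphorylated Cbl-b binds UbcH5B-Ub, bringing the fluorophores together; inhibition is read as loss of FRET signal.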

Assay [5] concerns T-cell. Briefly: CD25 cell surface staining on T-cells stimulated with anti-CD3 antibody alone (Biological Example 2). The note with it: Homo sapiens, T-cell; 1 μM Cbl-b inhibitor; fold change over baseline (anti-CD3/anti-CD28 stimulated T-cells without inhibitor); read-out: CD25 staining Anti-CD3 stimulation. It is filed as cell-based, human.
The test system of assay [6] is T-cell. The experiment in a line: CD25 cell surface staining on T-cells co-stimulated with anti-CD3 and anti-CD28 antibody (Biological Example 2). In kind it is cell-based, human. The following applies: Homo sapiens, T-cell, fold change over baseline (anti-CD3/anti-CD28 stimulated T-cells without inhibitor), read-out: CD25 staining Anti-CD3/Anti-CD28 stimulation; for fold induction at 0.3 µM: 0.3 μM Cbl-b inhibitor; for fold induction at 1 µM: 1 μM Cbl-b inhibitor. The method in brief: as §1

Bounds are passed on as bounds.

T1 sequence (Q13191 36-427): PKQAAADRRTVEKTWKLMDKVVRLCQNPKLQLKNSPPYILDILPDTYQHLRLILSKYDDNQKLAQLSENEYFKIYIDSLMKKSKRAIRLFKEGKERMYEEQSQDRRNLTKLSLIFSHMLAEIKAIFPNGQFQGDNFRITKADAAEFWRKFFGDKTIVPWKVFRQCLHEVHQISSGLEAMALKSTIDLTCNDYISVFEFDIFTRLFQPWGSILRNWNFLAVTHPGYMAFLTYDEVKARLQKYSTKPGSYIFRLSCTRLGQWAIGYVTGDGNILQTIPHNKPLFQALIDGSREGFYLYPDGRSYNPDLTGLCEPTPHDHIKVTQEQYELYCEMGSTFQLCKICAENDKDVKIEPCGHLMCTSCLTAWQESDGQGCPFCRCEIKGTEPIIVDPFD

As to `Cn1cnnc1[C@H](F)C1(c2cccc(N3Cc4c(cc(CN5C6CCCC5CC6)cc4C(F)(F)F)C3=O)c2)COC1` [Example 675b, 6-((8-azabicyclo[3.2.1]octan-8-yl)methyl)-2-(3-(3-((R)-fluoro(4-methyl-4H-1,2,4-triazol-3-yl)methyl)oxetan-3-yl)phenyl)-4-(trifluoromethyl)isoindolin-1-one], the values for the IC50 on Cbl-b [1] and at Cbl-b [4] were under 100 nM and at most 100 nM, respectively. In addition, the fold induction at 1 µM with T-cell [2] is over 0.201; in the assay with T-cell [3], over 7.5; in the assay with T-cell [5], over 1; in the assay with T-cell [6], 1.31 to 1.5. For the same compound, the fold induction at 0.3 µM is over 7.5 with T-cell [3] and 1.31 to 1.5 with T-cell [6].
Turning to `Cc1cc(C(=O)Nc2cccc(C3(C(F)(F)c4nncn4C)COC3)c2)nc(C2CC2)n1` [Example 676, 2-cyclopropyl-N-(3-(3-(difluoro(4-methyl-4H-1,2,4-triazol-3-yl)methyl)oxetan-3-yl)phenyl)-6-methylpyrimidine-4-carboxamide], the IC50 was under 100 nM at Cbl-b [1] and at most 100 nM on Cbl-b [4]. Further, the fold induction at 1 µM in the assay on T-cell [2] lay in the range of 0.101 to 0.15; in the assay with T-cell [3], 5 to 7.5; in the assay on T-cell [5], 0.801 to 1; with T-cell [6], 1.31 to 1.5. The figures for the fold induction at 0.3 µM in the assay on T-cell [3] and in the assay on T-cell [6] were 2.51 to 5 and 1.01 to 1.3, respectively.
On to `Cc1cc2c(c(C3CC3)n1)CN(c1cccc(C3(C(F)(F)c4nncn4C)COC3)c1)C2=O` [Example 677, 4-cyclopropyl-2-(3-(3-(difluoro(4-methyl-4H-1,2,4-triazol-3-yl)methyl)oxetan-3-yl)phenyl)-6-methyl-2,3-dihydro-1H-pyrrolo[3,4-c]pyridin-1-one], for which the IC50 was 301 to 1000 nM on Cbl-b [1] and at most 1000 nM at Cbl-b [4]. In addition, the fold induction at 1 µM lay in the range of 0.051 to 0.1 in the assay on T-cell [2], 1.01 to 2.5 in the assay on T-cell [3], 0.601 to 0.8 in the assay on T-cell [5] and 1.01 to 1.3 in the assay on T-cell [6]. Moreover, the figures for the fold induction at 0.3 µM in the assay on T-cell [3] and in the assay on T-cell [6] were 1.01 to 2.5 and 1.01 to 1.3, respectively.
On to `Cn1cnnc1C(F)(F)C1(c2cccc(N3Cc4c(cc(CN5CC(F)C5)cc4C(F)(F)F)C3=O)c2)COC1` [Example 679, 2-(3-(3-(difluoro(4-methyl-4H-1,2,4-triazol-3-yl)methyl)oxetan-3-yl)phenyl)-6-((3-fluoroazetidin-1-yl)methyl)-4-(trifluoromethyl)isoindolin-1-one], for which the values for the IC50 at Cbl-b [1] and at Cbl-b [4] were under 100 nM and at most 100 nM, respectively. The fold induction at 1 µM is 0.101 to 0.15 with T-cell [2], 5 to 7.5 in the assay on T-cell [3], over 1 with T-cell [5] and 1.01 to 1.3 in the assay with T-cell [6]. Further, the results for the fold induction at 0.3 µM in the assay with T-cell [3] and in the assay with T-cell [6] were 2.51 to 5 and 1.01 to 1.3, respectively.
As for `C[C@H](Cc1nncn1C)c1cc(C2CC2)nc(N2Cc3c(cccc3C(F)(F)F)C2=O)c1` [Example 680, (R)-2-(6-cyclopropyl-4-(1-(4-methyl-4H-1,2,4-triazol-3-yl)propan-2-yl)pyridin-2-yl)-4-(trifluoromethyl)isoindolin-1-one], the IC50 at Cbl-b [1] is under 100 nM; on Cbl-b [4] it was at most 100 nM. For the same compound, the fold induction at 1 µM in the assay with T-cell [2] was in the range of 0.101 to 0.15; in the assay with T-cell [3], 2.51 to 5; in the assay with T-cell [5], 0.801 to 1; in the assay with T-cell [6], 1.01 to 1.3. Moreover, the fold induction at 0.3 µM in the assay on T-cell [3] lay within 1.01 to 2.5; in the assay on T-cell [6] it was 1.01 to 1.3.
On to `C[C@H](Cc1nncn1C)c1cc(N2Cc3c(cccc3C(F)(F)F)C2=O)nc(C2(C)CC2)c1` [Example 681, (R)-2-(4-(1-(4-methyl-4H-1,2,4-triazol-3-yl)propan-2-yl)-6-(l-methylcyclopropyl)pyridin-2-yl)-4-(trifluoromethyl)isoindolin-1-one], for which the IC50 at Cbl-b [1] is 301 to 1000 nM; at Cbl-b [4] it was at most 1000 nM. Also, the fold induction at 1 µM is 0.051 to 0.1 with T-cell [2], 1.01 to 2.5 with T-cell [3], under 0.6 in the assay with T-cell [5] and 1.01 to 1.3 in the assay on T-cell [6]. Further, the figures for the fold induction at 0.3 µM in the assay with T-cell [3] and in the assay on T-cell [6] were 1.01 to 2.5 and 1.01 to 1.3, respectively.
Turning to `C[C@H](Cc1nncn1C)c1cc(-c2cncs2)nc(N2Cc3c(cccc3C(F)(F)F)C2=O)c1` [Example 682, (R)-2-(4-(1-(4-methyl-4H-1,2,4-triazol-3-yl)propan-2-yl)-6-(thiazol-5-yl)pyridin-2-yl)-4-(trifluoromethyl)isoindolin-1-one], the concentration for half-maximal inhibition (IC50) at Cbl-b [1] is 301 to 1000 nM; on Cbl-b [4], at most 1000 nM. Besides, the fold induction at 1 µM in the assay on T-cell [2] is 0.051 to 0.1; in the assay with T-cell [3] it was 1.01 to 2.5; in the assay on T-cell [5] it was under 0.6; with T-cell [6], 1.01 to 1.3. Further, the fold induction at 0.3 µM in the assay with T-cell [3] lay within 1.01 to 2.5; with T-cell [6], 1.01 to 1.3.
Take `C[C@H](Cc1nncn1C)c1cc(C2CCOCC2)nc(N2Cc3c(cccc3C(F)(F)F)C2=O)c1` [Example 686, (R)-2-(4-(1-(4-methyl-4H-1,2,4-triazol-3-yl)propan-2-yl)-6-(tetrahydro-2H-pyran-4-yl)pyridin-2-yl)-4-(trifluoromethyl)isoindolin-1-one]: the IC50 on Cbl-b [1] was 301 to 1000 nM; on Cbl-b [4], at most 1000 nM. Moreover, the fold induction at 1 µM was under 0.05 in the assay on T-cell [2], 1.01 to 2.5 with T-cell [3], under 0.6 in the assay with T-cell [5] and 1.01 to 1.3 in the assay with T-cell [6]. For the same compound, the fold induction at 0.3 µM in the assay with T-cell [3] lay in the range of 1.01 to 2.5; in the assay on T-cell [6], 1.01 to 1.3.
Turning to `C[C@H](Cc1nncn1C)c1cc(N[C@@H]2CC[C@@H]2O)nc(N2Cc3c(cccc3C(F)(F)F)C2=O)c1` [Example 689a, 2-(6-(((1R,2S)-2-hydroxycyclobutyl)amino)-4-((R)-1-(4-methyl-4H-1,2,4-triazol-3-yl)propan-2-yl)pyridin-2-yl)-4-(trifluoromethyl)isoindolin-1-one], the results for the IC50 at Cbl-b [1] and at Cbl-b [4] were 301 to 1000 nM and at most 1000 nM, respectively. The fold induction at 1 µM in the assay on T-cell [2] is under 0.05; with T-cell [3], 1.01 to 2.5; in the assay on T-cell [5], 0.601 to 0.8; with T-cell [6] it was 1.01 to 1.3. Besides, the fold induction at 0.3 µM in the assay with T-cell [3] was 1.01 to 2.5; in the assay on T-cell [6], 1.01 to 1.3.
`C[C@H](Cc1nncn1C)c1cc(N[C@H]2CC[C@H]2O)nc(N2Cc3c(cccc3C(F)(F)F)C2=O)c1` [Example 689b, 2-(6-(((1S,2R)-2-hydroxycyclobutyl)amino)-4-((R)-1-(4-methyl-4H-1,2,4-triazol-3-yl)propan-2-yl)pyridin-2-yl)-4-(trifluoromethyl)isoindolin-1-one]: the IC50 at Cbl-b [1] is 301 to 1000 nM; at Cbl-b [4], at most 1000 nM. Also, the fold induction at 1 µM is under 0.05 in the assay on T-cell [2], 1.01 to 2.5 in the assay with T-cell [3], under 0.6 in the assay on T-cell [5] and 1.01 to 1.3 in the assay on T-cell [6]. In addition, the fold induction at 0.3 µM with T-cell [3] fell in the range of 1.01 to 2.5; in the assay on T-cell [6] it was 1.01 to 1.3.
With `CCOc1cc(NC(=O)c2cc(C)nc(C3CC3)n2)cc(C2(Cc3nncn3C)COC2)c1` [Example 690, 2-cyclopropyl-N-(3-ethoxy-5-(3-((4-methyl-4H-1,2,4-triazol-3-yl)methyl)oxetan-3-yl)phenyl)-6-methylpyrimidine-4-carboxamide], the IC50 on Cbl-b [1] was under 100 nM; on Cbl-b [4], at most 100 nM. Also, the fold induction at 1 µM in the assay on T-cell [2] lay in the range of 0.051 to 0.1; in the assay with T-cell [3] it was 5 to 7.5; in the assay on T-cell [5], 0.801 to 1; in the assay on T-cell [6] it was 1.01 to 1.3. For the same compound, the fold induction at 0.3 µM is 2.51 to 5 with T-cell [3] and 1.01 to 1.3 in the assay with T-cell [6].
For the compound `CCOc1cc(N2Cc3c(cc([C@@H](C)N4CC[C@H](F)C4)cc3C(F)(F)F)C2=O)cc(C2(Cc3nncn3C)COC2)c1` [Example 691a, 2-(3-ethoxy-5-(3-((4-methyl-4H-1,2,4-triazol-3-yl)methyl)-oxetan-3-yl)phenyl)-6-((R)-1-((S)-3-fluoropyrrolidin-1-yl)ethyl)-4-(trifluoromethyl)-isoindolin-1-one], the IC50 at Cbl-b [1] was under 100 nM; on Cbl-b [4], at most 100 nM. The fold induction at 1 µM was over 0.201 with T-cell [2], over 7.5 with T-cell [3], over 1 in the assay on T-cell [5] and 1.51 to 1.75 with T-cell [6]. For the same compound, the fold induction at 0.3 µM with T-cell [3] is over 7.5; in the assay with T-cell [6], 1.31 to 1.5.

Source of the values: US20220324835A1 (Nurix Therapeutics, Inc., priority 2018, published 2022).
